Data published in PubChem BioAssay (NCI).
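Where inhibition never reached the appropriate level, the endpoint shown equals the highest concentration tested. Otherwise, values were interpolated linearly from a five-concentration, 48-hour dose response in 96-well plates. The concentration for 50% growth inhibition is given as GI50. At the TGI there is no net growth.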

Key:
Assay in all cases: growth of human tumour cells (NCI), 48 h
[1] = system: IGROV1 ovarian
[2] = system: NCI-H226 lung
[3] = system: MDA-MB-435
[4] = system: EKVX NSCLC
[5] = system: HCT-116 colon
[6] = system: 786-0 renal
[7] = system: MALME-3M melanoma
[8] = system: SF-295 CNS
[9] = system: ACHN renal
[10] = system: NCI-H23 lung
[11] = system: NCI-H460 lung
[12] = system: SF-268 CNS
[13] = system: SK-MEL-2 melanoma
[14] = system: UACC-257 melanoma
[15] = system: OVCAR-3 ovarian
[16] = system: HL-60(TB) leukemia
[17] = system: OVCAR-5 ovarian
[18] = system: SK-OV-3 ovarian
[19] = system: CCRF-CEM leukemia
[20] = system: UACC-62 melanoma
[21] = system: RXF 393 renal
[22] = system: U251 CNS
[23] = system: SNB-75 CNS
[24] = system: M14 melanoma
[25] = system: MDA-MB-231 breast
[26] = system: SN12C renal
[27] = system: K-562 leukemia
[28] = system: HT29 colon
[29] = system: PC-3 prostate
[30] = system: OVCAR-8 ovarian
[31] = system: DU-145 prostate
[32] = system: RPMI-8226 leukemia
[33] = system: T-47D breast
[34] = system: CAKI-1 renal
[35] = system: HCT-15 colon
[36] = system: NCI/ADR-RES ovarian
[37] = system: MCF7 breast
[38] = system: TK-10 renal
[39] = system: HOP-62 NSCLC
[40] = system: BT-549 breast
[41] = system: HCC-2998 colon
[42] = system: SW-620 colon
[43] = system: A549 NSCLC
[44] = system: HS 578T breast
[45] = system: SF-539 CNS
[46] = system: MOLT-4 leukemia
[47] = system: LOX IMVI melanoma
[48] = system: SNB-19 CNS
[49] = system: UO-31 renal
[50] = system: SR leukemia
[51] = system: A498 renal
[52] = system: SK-MEL-28 melanoma
[53] = system: COLO 205 colon
[54] = system: KM12 colon
[55] = system: OVCAR-4 ovarian
[56] = system: SK-MEL-5 melanoma
[57] = system: NCI-H522 lung
[58] = system: HOP-92 NSCLC

## CS(=O)(=O)c1ccc(Oc2cc(F)cc(C#N)c2)c2c1[C@H](O)[C@H](F)[C@@H]2F
[1]
  GI50: > 100 µM
  TGI: > 100 µM
[2]
  GI50: > 100000 nM
  TGI: > 100000 nM
[3]
  GI50: > 100000 nM
  TGI: > 100000 nM
[4]
  GI50: > 100 µM
  TGI: > 100 µM
[5]
  GI50: > 100000 nM
  TGI: > 100000 nM
[6]
  GI50: > 100000 nM
  TGI: > 100 µM
[7]
  GI50: > 100000 nM
  TGI: > 100 µM
[8]
  GI50: > 100000 nM
  TGI: > 100 µM
[9]
  GI50: > 100000 nM
  TGI: > 100 µM
[10]
  GI50: > 100000 nM
  TGI: > 100 µM
[11]
  GI50: > 100 µM
  TGI: > 100 µM
[12]
  GI50: > 100000 nM
  TGI: > 100 µM
[13]
  GI50: > 100000 nM
  TGI: > 100 µM
[14]
  GI50: > 100 µM
  TGI: > 100 µM
[15]
  GI50: > 100000 nM
  TGI: > 100000 nM
[16]
  GI50: > 100 µM
  TGI: > 100 µM
[17]
  GI50: > 100 µM
  TGI: > 100 µM
[18]
  GI50: > 100000 nM
  TGI: > 100 µM
[19]
  GI50: > 100000 nM
  TGI: > 100 µM
[20]
  GI50: > 100000 nM
  TGI: > 100000 nM
[21]
  GI50: > 100000 nM
  TGI: > 100000 nM
[22]
  GI50: > 100000 nM
  TGI: > 100 µM
[23]
  GI50: > 100000 nM
  TGI: > 100 µM
[24]
  GI50: > 100000 nM
  TGI: > 100 µM
[25]
  GI50: > 100000 nM
  TGI: > 100 µM
[26]
  GI50: > 100000 nM
  TGI: > 100 µM
[27]
  GI50: > 100000 nM
  TGI: > 100 µM
[28]
  GI50: > 100000 nM
  TGI: > 100 µM
[29]
  GI50: > 100 µM
  TGI: > 100 µM
[30]
  GI50: > 100 µM
  TGI: > 100 µM
[31]
  GI50: > 100000 nM
  TGI: > 100 µM
[32]
  GI50: > 100000 nM
  TGI: > 100 µM
[33]
  GI50: > 100000 nM
  TGI: > 100 µM
[34]
  GI50: > 100000 nM
  TGI: > 100 µM
[35]
  GI50: > 100000 nM
  TGI: > 100 µM
[36]
  GI50: > 100 µM
  TGI: > 100 µM
[37]
  GI50: > 100000 nM
  TGI: > 100 µM
[38]
  GI50: > 100000 nM
  TGI: > 100 µM
[39]
  GI50: > 100000 nM
  TGI: > 100 µM
[40]
  GI50: > 100000 nM
  TGI: > 100 µM
[41]
  GI50: > 100000 nM
  TGI: > 100 µM
[42]
  GI50: > 100000 nM
  TGI: > 100 µM
[43]
  GI50: > 100000 nM
  TGI: > 100 µM
[44]
  GI50: > 100000 nM
  TGI: > 100 µM
[45]
  GI50: > 100000 nM
  TGI: > 100000 nM
[46]
  GI50: > 100000 nM
  TGI: > 100 µM
[47]
  GI50: > 100 µM
  TGI: > 100 µM
[48]
  GI50: > 100000 nM
  TGI: > 100 µM
[49]
  GI50: > 100000 nM
  TGI: > 100 µM
[50]
  GI50: > 100000 nM
  TGI: > 100 µM
[51]
  GI50: 4860 nM
  TGI: > 100000 nM
[52]
  GI50: > 100000 nM
  TGI: > 100 µM
[53]
  GI50: > 100000 nM
  TGI: > 100 µM
[54]
  GI50: > 100000 nM
  TGI: > 100 µM
[55]
  GI50: > 100000 nM
  TGI: > 100 µM
[56]
  GI50: > 100000 nM
  TGI: > 100 µM
[57]
  GI50: > 100000 nM
  TGI: > 100000 nM

## CC(C)C[C@H](NC(=O)[C@H](Cc1ccccc1)n1ccc(N2CCCCC2)cc1=O)B(O)O
[1]
  GI50: 5.1 µM
  TGI: > 100 µM
[2]
  GI50: 188 nM
  TGI: 423 nM
[3]
  GI50: 177 nM
  TGI: 371 nM
[5]
  GI50: 343 nM
  TGI: 2550 nM
[6]
  GI50: 825 nM
  TGI: > 100 µM
[7]
  GI50: 682 nM
  TGI: 7.95 µM
[8]
  GI50: 585 nM
  TGI: 4.51 µM
[9]
  GI50: 406 nM
  TGI: > 100 µM
[10]
  GI50: 1590 nM
  TGI: > 100 µM
[11]
  GI50: 3.18 µM
  TGI: > 100 µM
[12]
  GI50: 699 nM
  TGI: 3.85 µM
[13]
  GI50: 460 nM
  TGI: 4.56 µM
[15]
  GI50: 327 nM
  TGI: 1210 nM
[17]
  GI50: 3.15 µM
  TGI: 97.3 µM
[18]
  GI50: 2360 nM
  TGI: 71.5 µM
[19]
  GI50: 429 nM
  TGI: > 100 µM
[20]
  GI50: 458 nM
  TGI: 2440 nM
[21]
  GI50: 284 nM
  TGI: 882 nM
[22]
  GI50: 1180 nM
  TGI: > 100 µM
[23]
  GI50: 461 nM
  TGI: 3.82 µM
[24]
  GI50: 356 nM
  TGI: 3.88 µM
[25]
  GI50: 1200 nM
  TGI: 12.2 µM
[26]
  GI50: 1500 nM
  TGI: 11.1 µM
[27]
  GI50: 1080 nM
  TGI: > 100 µM
[28]
  GI50: 449 nM
  TGI: > 100 µM
[29]
  GI50: 4.19 µM
  TGI: > 100 µM
[30]
  GI50: 3.64 µM
  TGI: > 100 µM
[31]
  GI50: 706 nM
  TGI: > 100 µM
[32]
  GI50: 321 nM
  TGI: > 100 µM
[33]
  GI50: 781 nM
  TGI: 6.09 µM
[34]
  GI50: 467 nM
  TGI: 10 µM
[35]
  GI50: 1610 nM
  TGI: 22.1 µM
[36]
  GI50: 17.4 µM
  TGI: > 100 µM
[37]
  GI50: 392 nM
  TGI: > 100 µM
[38]
  GI50: 375 nM
  TGI: 15.6 µM
[39]
  GI50: 2630 nM
  TGI: 9.29 µM
[40]
  GI50: 364 nM
  TGI: 4.32 µM
[41]
  GI50: 1140 nM
  TGI: 3.09 µM
[42]
  GI50: 376 nM
  TGI: > 100 µM
[43]
  GI50: 2390 nM
  TGI: > 100 µM
[44]
  GI50: 427 nM
  TGI: 6.2 µM
[45]
  GI50: 206 nM
  TGI: 604 nM
[46]
  GI50: 308 nM
  TGI: > 100 µM
[48]
  GI50: 956 nM
  TGI: > 100 µM
[49]
  GI50: 981 nM
  TGI: 15.4 µM
[58]
  GI50: 1340 nM
  TGI: 5.61 µM
[50]
  GI50: 259 nM
  TGI: 11.6 µM
[51]
  GI50: 127 nM
  TGI: 736 nM
[52]
  GI50: 521 nM
  TGI: 29.7 µM
[53]
  GI50: 853 nM
  TGI: > 100 µM
[54]
  GI50: 1330 nM
  TGI: 4.38 µM
[55]
  GI50: 2060 nM
  TGI: > 100 µM
[56]
  GI50: 367 nM
  TGI: 3.11 µM
[57]
  GI50: 305 nM
  TGI: 2250 nM
